By IC50 is commonly meant the concentration that inhibits the measured activity by half. The term melting point denotes the temperature of the solid-liquid transition.

Molecules are shown by their SMILES.

7 compounds from patent US7601726B2, “Substituted pyrazolo[3,4-d]pyrimidines as p38 MAP kinase inhibitors” (Roche Palo Alto LLC, priority 2005, dated 2009) can be followed below.

The target of one data set is T1, p38 MAP kinase (Homo sapiens, UniProt Q16539).
T1 construct: made in house; host or cells: E. coli (co-expressed with SEK-1 and MEKK)
T1 sequence (Q16539 whole entry): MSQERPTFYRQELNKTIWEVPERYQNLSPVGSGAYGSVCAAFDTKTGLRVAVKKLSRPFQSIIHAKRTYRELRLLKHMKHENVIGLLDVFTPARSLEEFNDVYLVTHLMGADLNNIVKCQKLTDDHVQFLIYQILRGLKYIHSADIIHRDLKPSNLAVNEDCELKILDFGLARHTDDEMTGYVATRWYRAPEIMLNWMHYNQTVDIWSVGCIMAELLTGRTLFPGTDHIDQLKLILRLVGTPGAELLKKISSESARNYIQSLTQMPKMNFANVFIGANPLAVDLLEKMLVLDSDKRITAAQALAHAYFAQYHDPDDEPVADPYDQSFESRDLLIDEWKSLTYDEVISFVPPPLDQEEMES
The data set is described as follows: p38 (MAP) kinase in vitro assay (transfer of γ-phosphate from γ-33P-ATP to Myelin Basic Protein). The class given is biochemical. The conditions noted are these: phosphorylated recombinant p38 MAP kinase, MBP substrate, 30° C. The procedure: This example illustrates a p38 (MAP) kinase in vitro assay useful for evaluating the compounds of the invention.
The p38 MAP kinase inhibitory activity of compounds of this invention in vitro was determined by measuring the transfer of the γ-phosphate from γ-^33P-ATP by p-38 kinase to Myelin Basic Protein (MBP), using a minor modification of the method described in Ahn, et al., J. Biol. Chem. 266:4220-4227 (1991).
The phosphorylated form of the recombinant p38 MAP kinase was co-expressed with SEK-1 and MEKK in E. Coli (see, Khokhlatchev, et al., J. Biol. Chem. 272:11057-11062 (1997)) and then purified by affinity chromatography using a Nickel column.
The phosphorylated p38 MAP kinase was diluted in kinase buffer (20 mM 3-(N-morpholino)propanesulfonic acid, pH 7.2, 25 mM β-glycerol phosphate, 5 mM ethylene glycol-bis(beta-aminoethyl ether)-N,N,N′,N′-tetraacetic acid, 1 mM sodium ortho-vanadate, 1 mM dithiothreitol, 40 mM magnesium chloride). Test compound dissolved in DMSO or only DMSO (control) was added and the samples were incubated for 10 min at 30° C. The kinase reaction was initiated by the addition of a substrate cocktail containing MBP and γ-^33P-ATP. […] The phosphorylated MBP was then separated from the residual γ-^33P-ATP using a phosphocellulose membrane (Millipore, Bedfrod, Mass.) and quantitated using a scintillation counter (Packard, Meriden, Conn.).
In the case of `OC[C@H](O)CNc1cc(Oc2ccc(F)cc2F)cc2[nH]nc(-c3ccccc3Cl)c12` (stereo in doubt) [3-[3-(2-Chloro-phenyl)-6-(2,4-difluoro-phenoxy)-1H-indazol-4-ylamino]-propane-1,2-diol], the IC50 is around 0.004 µM.

Turning to `O=C(Nc1n[nH]c2nc(Oc3ccc(F)cc3F)ncc12)c1ccccc1Br` [2-Bromo-N-[6-(2,4-difluoro-phenoxy)-1H-pyrazolo[3,4-d]pyrimidin-3-yl]-benzamide], the IC50 was around 0.016 µM.

Test system in another data set: not given
Assay: not given
Details: not given
Regarding `O=C(Nc1n[nH]c2nc(Oc3ccc(F)cc3F)ncc12)C1CCCC1` [Table 1 #38, Cyclopentanecarboxylic acid [6-(2,4-difluoro-phenoxy)-1H-pyrazolo[3,4-d]pyrimidin-3-yl]-amide], the melting point was in the range of 206.3 to 207.51 °C. The same measure, in the same setting: the value for `CCS(=O)(=O)Nc1n[nH]c2nc(Oc3ccc(F)cc3F)ncc12` [Table 1 #14, Ethanesulfonic acid [6-(2,4-difluoro-phenoxy)-1H-pyrazolo[3,4-d]pyrimidin-3-yl]-amide] was 226 to 226.9 °C; that for `CC(C)Nc1n[nH]c2nc(Oc3ccc(F)cc3F)ncc12` [Table 1 #1, [6-(2,4-Difluoro-phenoxy)-1H-pyrazolo[3,4-d]pyrimidin-3-yl]-isopropyl-amine] was 211.3 to 214.4 °C. On the same count and under the same terms, with `OC[C@H](O)COc1cc(Oc2ccc(F)cc2F)cc2[nH]nc(-c3ccccc3Cl)c12` (stereo in doubt) [Table 2 #1, 3-[3-(2-Chloro-phenyl)-6-(2,4-difluoro-phenoxy)-1H-indazol-4-yloxy]-propane-1,2-diol] the figure was 93.3 to 94.6 °C; with `O=C(Nc1n[nH]c2nc(Oc3ccc(F)cc3F)ncc12)OCc1ccccc1` [Table 1 #42, [6-(2,4-Difluoro-phenoxy)-1H-pyrazolo[3,4-d]pyrimidin-3-yl]-carbamic acid benzyl ester], 270.1 to 272 °C.
